Experimental data from US20230357233A1, “HETEROARYL COMPOUNDS, PREPARATION METHODS AND USES THEREOF” (INVENTISBIO CO., LTD., priority 2020, published 2023).

What was measured:
[1] = target: recombinant human KRAS^G12D protein (Homo sapiens, UniProt P01116, G12D); assay: Temperature-dependent Fluorescence (TdF) KRAS^G12D protein binding assay; conditions: 6 μM KRAS^G12D Protein, 10 μM compound, Sypro Orange; Kd calculated from fluorescent shift
Method: The TdF assay was conducted in the 96-well-based real-time fluorescence plate reader (ABI 7500 or Roche LightCycler 480). Fluorescent dye Sypro Orange (Sigma) was used to monitor the protein folding-unfolding transition. Protein-compound binding was gauged by the shift in the unfolding transition temperature (ΔTm) acquired with and without compound. […] The sample plate was heated from 30° C. to 95° C. with a thermal ramping rate of […], taking a fluorescence reading every 0.4° C. using a CY3 channel matching the excitation and emission wavelengths of Sypro Orange (λ ex 470 nm; λ em 570 nm). Binding affinity (Kd value) was calculated based on the degree of fluorescent shift of the protein with and without compound.

[2] = target: Ba/F3_KRAS^G12D cells (Homo sapiens, UniProt P01116, G12D, cells depend on it); assay: Ba/F3 KRAS^G12D cell proliferation assay (cell-titer Glo); type: cell-based; conditions: cell growth inhibition, treated with the compounds for 3 days, read-out: BaF3_KRAS^G12D IC50
Method: Cells were seeded at a density of 5×10^3 per well into 96-well plate and incubated overnight. Serial diluted compounds were added to each well. Cells were treated with the compounds for 3 days, after which cell-titer Glo reagent (Promega #G7572) was used to assess cell proliferation. The luminescence signal was then collected on Tecan Spark plate reader. […] Cell growth inhibition of IC50 is calculated with the equation of Y=Bottom+(Top−Bottom)/(1+10^((LogIC50−X)*HillSlope))

Sequence of Ba/F3_KRAS^G12D cells (P01116 whole entry G12D): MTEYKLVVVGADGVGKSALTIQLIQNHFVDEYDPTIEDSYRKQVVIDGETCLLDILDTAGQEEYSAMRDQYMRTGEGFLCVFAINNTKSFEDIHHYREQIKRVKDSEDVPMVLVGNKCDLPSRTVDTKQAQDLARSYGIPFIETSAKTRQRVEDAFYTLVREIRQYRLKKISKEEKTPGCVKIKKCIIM
Sequence of recombinant human KRAS^G12D protein (P01116 1-188 isoform P01116-2 G12D): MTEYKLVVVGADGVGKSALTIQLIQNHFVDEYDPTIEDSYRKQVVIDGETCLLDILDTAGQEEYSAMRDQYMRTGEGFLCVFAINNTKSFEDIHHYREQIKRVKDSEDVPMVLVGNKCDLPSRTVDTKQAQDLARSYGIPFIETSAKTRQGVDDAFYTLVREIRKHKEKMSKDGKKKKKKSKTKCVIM

| SMILES | Kd [1] [nM] | GI50 [2] [nM] |
| --- | --- | --- |
| CCc1cccc2cc(O)cc(-c3nc(C)c4c(N5CC6CCC(C5)N6)nc(OC[C@@]56CCCN5C[C@H](F)C6)nc4c3C3CC3)c12 [Compound 122] | > 5000 | 500 to 5000 |
| O=C(C(O)O)N1CCN(c2nc(OC[C@@]34CCCN3C[C@H](F)C4)nc3c(F)c(-c4cc(O)cc5cccc(Cl)c45)ncc23)CC1 [Compound 79] | > 5000 | > 5000 |
| CN(C)CCCOc1nc(N2CC3CCC(C2)N3)c2cc(Cl)c(-c3cccc4ccccc34)nc2n1 [Compound 4] | > 5000 | > 5000 |
| Oc1cc(-c2cc3nc(OC[C@@]45CCCN4C[C@H](F)C5)nc(N4CC5CCC(C4)N5)c3nn2)c2c(Cl)cccc2c1 [Compound 94] | ≤ 500 | 500 to 5000 |
| Oc1cc(-c2ncc3c(N4CC5CCC(C4)N5)nc(OC[C@@]45CCCN4C[C@H](F)C5)cc3n2)c2ccccc2c1 [Compound 62] | > 5000 | 500 to 5000 |
| Oc1cc(-c2cc3nc(N4CC5CCC(C4)N5)ccc3c(OC[C@@]34CCCN3C[C@H](F)C4)n2)c2ccccc2c1 [Compound 104] | > 5000 | > 5000 |
| C#Cc1c(F)ccc2cc(O)cc(-c3nc(C(F)F)c4c(N5CC6CCC(C5)N6)nc(OC[C@@]56CCCN5C[C@H](F)C6)nc4c3F)c12 [Compound 165] | ≤ 500 | < 500 |
| CN(C)CCCn1c(=O)nc(N2CC3CCC(C2)N3)c2cnc(-c3cccc4cccc(Cl)c34)c(F)c21 [Compound 17] | > 5000 | > 5000 |
| Oc1cc(-c2ncc3c(N4CC5CCC(C4)N5)nc(OC[C@@]45CCCN4C[C@H](F)C5)nc3c2F)c2c(Cl)cccc2c1 [Compound 112] | ≤ 500 | < 500 |
| CN1CCC[C@H]1Cn1c(=O)nc(N2CCNCC2)c2cnc(-c3cccc4cccc(Cl)c34)c(F)c21 [Compound 35] | > 5000 | > 5000 |
| Cc1nc(-c2cc(O)cc3cccc(Cl)c23)c(Cl)c2nc(OC[C@@]34CCCN3C[C@H](F)C4)nc(N3CC4CCC(C3)N4)c12 [Compound 130] | ≤ 500 | < 500 |
| CN(C)CCOc1nc(N2C3CCC2CNC3)c2cc(F)c(-c3ccccc3F)nc2c1-c1cccnc1C1CC1 [Compound 20] | > 5000 | 500 to 5000 |
| CN(C)CCOc1nc(N2CCNCC2)c2cc(F)c(-c3ccccc3F)nc2c1-c1cccnc1C1CC1 [Compound 24] | > 5000 | 500 to 5000 |
| Cc1nc(-c2cc(O)cc3cccc(Cl)c23)c(F)c2nc(OC[C@@]34CCCN3C[C@H](F)C4)nc(N3CC4CCC(C3)N4C)c12 [Compound 90] | 500 to 5000 | 500 to 5000 |
| Clc1cc2c(N3CC4CCC(C3)N4)nc(OCC34CCCN3CCC4)nc2nc1-c1cccc2ccccc12 [Compound 2] | > 5000 | > 5000 |
| Fc1ccccc1-c1nc2c(-c3cccnc3C3CC3)c(OCC34CCCN3CCC4)nc(N3CC4CCC(C3)N4)c2cc1F [Compound 28] | > 5000 | 500 to 5000 |
| C#Cc1c(F)ccc2cc(O)cc(-c3nc(C4CC4)c4c(N5CC6CCC(C5)N6)nc(OC[C@@]56CCCN5C[C@H](F)C6)nc4c3F)c12 [Compound 181] | – | < 500 |
| C#Cc1c(F)ccc2cc(O)cc(-c3nc(OC(C)C)c4c(N5CC6CCC(C5)N6)nc(N(C)C)nc4c3F)c12 [Compound 189] | – | 500 to 5000 |
| C#Cc1c(F)ccc2cc(O)cc(-c3nc(OCC)c4c(N5CC6CCC(C5)N6)nc(OCC5(CN6CCOCC6)CC5)nc4c3F)c12 [Compound 234] | – | < 500 |
| C#Cc1c(F)ccc2cc(O)cc(-c3nc(OC(C)C)c4c(N5CC6CCC(C5)N6)nc(OC[C@@H]5C[C@@H](OC(=O)N(C)C)CN5C)nc4c3F)c12 [Compound 235] | – | < 500 |
| C#Cc1c(F)ccc2cc(O)cc(-c3nc(OC)c4c(N5CC6CCC(C5)N6)nc(OCC5(CN6CCN(C(=O)CCCCCCCCCCCCCCC)CC6)CC5)nc4c3F)c12 [Compound 224] | – | < 500 |
| Cc1nc(N)cc(-c2nc(OC(C)C)c3c(N4CC5CCC(C4)N5)nc(OC[C@@]45CCCN4C[C@H](F)C5)nc3c2F)c1C(F)(F)F [Compound 198] | – | < 500 |
| C#Cc1c(F)ccc2cc(O)cc(-c3nc(OC(C)C)c4c(N5CCNCC(F)(F)C5)nc(OC[C@@]56CCCN5C[C@H](F)C6)nc4c3F)c12 [Compound 219] | – | < 500 |
| C#Cc1c(F)ccc2cc(O)cc(-c3nc(OC(C)C)c4c(N5CC6CCC(C5)N6)nc(OC)nc4c3F)c12 [Compound 191] | – | < 500 |
| C#Cc1c(F)ccc2cc(O)cc(-c3nc(OC(C)C)c4c(N5CC6CCC(C5)N6)nc(OC[C@]56CCCN5[C@@H](COC(=O)N(C)C)CC6)nc4c3F)c12 [Compound 225] | – | < 500 |
| CCc1c(F)ccc2cc(N)cc(-c3nc(OC)c4c(N5CC6CCC(C5)N6)nc(OC[C@@]56CCCN5C[C@H](F)C6)nc4c3F)c12 [Compound 164] | – | < 500 |

| SMILES | Kd [1] [nM] | GI50 [2] [nM] |
| --- | --- | --- |
| C#Cc1c(F)ccc2cc(O)cc(-c3nc(OC(C)C)c4c(N5CC6CCC(C5)N6)nc(C)nc4c3F)c12 [Compound 218] | – | < 500 |
| C#Cc1c(F)ccc2cc(O)cc(-c3nc(O)c4c(N5CC6CCC(C5)N6)nc(OCCOC)nc4c3F)c12 [Compound 193] | – | < 500 |
| C#Cc1c(F)ccc2cc(N)cc(-c3nc(O)c4c(N5CC6CCC(C5)N6)nc(OC[C@@H]5C[C@@H](F)CN5C)nc4c3F)c12 [Compound 210] | – | 500 to 5000 |
| C#Cc1c(F)ccc2cc(O)cc(-c3nc(O)c4c(N5CC6CCC(C5)N6)nc(NC)nc4c3F)c12 [Compound 187] | – | 500 to 5000 |
| C#Cc1c(F)ccc2cccc(-c3nc(OC(C)C)c4c(N5CC6CCC(C5)N6)nc(OC[C@]56CCCN5[C@@H](COC(=O)N(C)C)CC6)nc4c3F)c12 [Compound 222] | – | < 500 |
| C#Cc1c(F)ccc2cccc(-c3nc(OC)c4c(N5CC6CCC(C5)N6)nc(OC[C@]56CCCN5[C@@H](COC(=O)N(C)C)CC6)nc4c3F)c12 [Compound 216] | – | < 500 |
| C#Cc1c(F)ccc2cc(O)cc(-c3nc(OC(C)C)c4c(N5CCNC(CF)C5)nc(OC[C@@]56CCCN5C[C@H](F)C6)nc4c3F)c12 (stereo partly shown) [Compound 242] | – | < 500 |
| C#Cc1c(F)ccc2cc(O)cc(-c3nc(OC)c4c(N5CC6CCC(C5)N6)nc(OCC5(CN6CCCC6)CC5)nc4c3F)c12 [Compound 183] | – | < 500 |
| C#Cc1c(F)ccc2cc(O)cc(-c3nc(OCC)c4c(N5CCNC6(CCC6)C5)nc(OC[C@@]56CCCN5C[C@H](F)C6)nc4c3F)c12 [Compound 172] | – | < 500 |
| C#Cc1c(F)ccc2cc(O)cc(-c3nc(O)c4c(N5CC6CCC(C5)N6)nc(OC[C@]56CCCN5[C@@H](COC(=O)N(C)C)CC6)nc4c3F)c12 [Compound 239] | – | 500 to 5000 |
| C#Cc1c(F)ccc2cc(O)cc(-c3nc(OCC(F)F)c4c(N5CC6CCC(C5)N6)nc(OC[C@@]56CCCN5C[C@H](F)C6)nc4c3F)c12 [Compound 180] | – | < 500 |
| C#Cc1c(F)ccc2c(F)c(N)cc(-c3nc(OC(C)C)c4c(N5CC6CCC(C5)N6)nc(OC[C@@]56CCCN5C[C@H](F)C6)nc4c3F)c12 [Compound 202] | – | < 500 |
| C#Cc1c(F)ccc2cc(O)cc(-c3nc(OC)c4c(N5CC6CCC(C5)N6)nc(OC[C@@]56CCCN5[C@H](COC(=O)N(C)C)CC6)nc4c3F)c12 [Compound 175] | – | < 500 |
| C#Cc1c(F)ccc2cc(N)cc(-c3nc(OC(C)C)c4c(N5CC6CCC(C5)N6)nc(OC[C@@H]5C[C@@H](F)CN5C)nc4c3F)c12 [Compound 206] | – | < 500 |
| C#Cc1c(F)ccc2cc(O)cc(-c3nc(OC(C)C)c4c(N5CC6CCC(C5)N6)nc(OCCN(C)C)nc4c3F)c12 [Compound 194] | – | < 500 |
| C#Cc1c(F)ccc2cc(O)cc(-c3nc(OC(C)C)c4c(N5CC6CCC(C5)N6)nc(OC[C@]56CCCN5[C@H](CO)CC6)nc4c3F)c12 [Compound 228] | – | < 500 |
| C#Cc1c(F)ccc2cc(O)cc(-c3nc(C4CC4)c4c(N5CC6CCC(C5)N6)ncnc4c3F)c12 [Compound 205] | – | < 500 |
| C#Cc1c(F)ccc2cc(O)cc(-c3nc(OC(C)C)c4c(N5CC6CCC(C5)N6)nc(OCC5(CN6CCOCC6)CC5)nc4c3F)c12 [Compound 229] | – | < 500 |
| C#Cc1c(F)ccc2cc(O)cc(-c3nc(OC(C)C)c4c(N5CC6CCC(C5)N6)nc(OC[C@@H]5C[C@H](F)CN5C)nc4c3F)c12 [Compound 204] | – | < 500 |
| CCc1c(F)ccc2cccc(-c3nc(OC(C)C)c4c(N5CC6CCC(C5)N6)nc(OC[C@]56CCCN5[C@@H](COC(=O)N(C)C)CC6)nc4c3F)c12 [Compound 223] | – | < 500 |
| C#Cc1c(F)ccc2cc(N)cc(-c3nc(OC(C)C)c4c(N5CC6CCC(C5)N6)nc(OC[C@@H]5C[C@H](F)CN5C)nc4c3F)c12 [Compound 207] | – | < 500 |
| C#Cc1c(F)ccc2cc(O)cc(-c3nc(OCC)c4c(N5C[C@H]6CC[C@@H](C5)[C@@H]6O)nc(OC[C@@]56CCCN5C[C@H](F)C6)nc4c3F)c12 [Compound 212] | – | < 500 |
| CC#Cc1c(F)ccc2cc(O)cc(-c3nc(OC)c4c(N5CC6CCC(C5)N6)nc(OC[C@@]56CCCN5C[C@H](F)C6)nc4c3F)c12 [Compound 146] | – | < 500 |
| C#Cc1c(F)ccc2cc(O)cc(-c3nc(OC(C)C)c4c(N5CC6CCC(C5)N6)nc(N)nc4c3F)c12 [Compound 188] | – | 500 to 5000 |
| C#Cc1c(F)ccc2cc(O)cc(-c3nc(OCC)c4c(N5CC6CCC(C5)O6)nc(OC[C@@]56CCCN5C[C@H](F)C6)nc4c3F)c12 [Compound 169] | – | < 500 |
